Source: PMC3775947 (Clinical lymphoma, myeloma & leukemia, 2013)
Like-named read-outs stand apart in the source and are kept apart here.

Key:
[1] = human, in vivo
patients with AML = details: cited from earlier work; for Rates of response: LDAC or decitabine alone

Row | SMILES | AUC0–8 ratio, Day 7:Day10, LDAC ([1]; 800 mg) | AUC0–8 ratio, Day 7:Day10, LDAC ([1]; 1000 mg) | AUC0–8 ratio, Day 7:Day10, LDAC ([1]; 1200 mg) | Time of peak plasma concentrations (Cmax) post administration ([1]; sc, 20 mg) [h] | t½, monophasic elimination ([1]; sc, 20 mg) [h] | Infection frequency (patients with AML; LDAC monotherapy) [%] | Rates of response (patients with AML) [%]
1 | Nc1ccn([C@@H]2O[C@H](CO)[C@@H](O)[C@@H]2O)c(=O)n1 [LDAC, cytosine arabinoside] | 1.1 (14.6) ng.h/mL | 1.2 (24.2) ng.h/mL | 0.79 (105.7) ng.h/mL | 0.25 to 1 | 1 to 2 | 45 | ~20
2 | Nc1ncn([C@H]2C[C@H](O)[C@@H](CO)O2)c(=O)n1 [decitabine] | – | – | – | – | – | – | ~20
